PMC12380353, “MK-8527 is a novel inhibitor of HIV-1 reverse transcriptase translocation with potential for extended-duration dosing” (PLOS Biology, 2025)
Several values for one entry are separate records, joined by “and”; a condition that tells them apart may be missing. Identical values can stand only once. Like-named read-outs stand apart in the source and are kept apart here.

Assays:
HIV-1 = assay: Multicycle antiviral assay in MT4-GFP cells; format: cell-based; conditions: 10% NHS
Method: Compounds were evaluated for their ability to prevent HIV-1 infection in MT4-GFP cells as described in Diamond, and colleagues. HIV-1 replication was monitored using the MT4-gag-GFP clone D3, and MT4 cells with a GFP reporter gene, the expression of which is dependent on the HIV-1 expressed proteins tat and rev. […] Proviral variants used for these studies were generated by site-directed mutagenesis in the WT R8 proviral plasmid. Virus was produced by transfection in 293T cells.
Briefly, MT4-GFP cells were cultured overnight with the appropriate HIV-1 variant at an approximate multiplicity of infection of 0.01. After approximately 19 h of infection, the cells were washed and resuspended in assay media containing 10% normal human serum (NHS) before being added to 384-well compound plates containing 10-point serial 3-fold dilutions of compound. Controls included no inhibitor (dimethyl sulfoxide [DMSO] only) and a combination of 3 antiviral agents, efavirenz, indinavir, and an integrase strand transfer inhibitor, L-002254051, at final concentrations of 4 µM each. The infected or treated cells were cultured at 37 °C, 5% CO2, and 90% humidity until evaluation of infection was conducted at approximately 48 and 72 h post-infection by counting the number of GFP cells in each well using an Acumen eX3 scanner (SPT Labtech; Melbourn, UK). The reproductive ratio, R, was calculated by dividing the number of infected cells at 72 h by the number at 48 h post-infection. The percentage inhibition caused by a test compound was calculated by the following formula:
inhibition = [1−(Rtest compound − Rpositive control)]/(RDMSO only − Rpositive control) × 100%\]
The dose–response curves of each test compound were plotted as percentage inhibition versus the test concentration.

HIV-2ROD = assay: Cytoprotection assay in CEM-SS cells, HIV-2; format: cell-based; conditions: Human immunodeficiency virus 2, 144 h, 6 days, read-out: Antiviral potency as IC50, HIV-2 – CEM-SS cells
Method: The antiviral activity of MK-8527 against HIV-1 and HIV-2 was determined in a cytoprotection assay in CEM-SS cells at ImQuest BioSciences (Fredrick, MD, USA). Briefly, CEM-SS cells (National Institute of Health AIDS Research and Reference Reagent Program) were passaged in RPMI 1640 supplemented with 10% heat-inactivated FBS, 2 mM L-glutamine, 100 U/mL penicillin and 100 µg/mL streptomycin prior to use in the antiviral assay. On the day preceding the assay, the cells were split 1:2 to ensure they were in an exponential growth phase at the time of infection. The cells were resuspended at 2.5 × 10^3 cells per well in cell culture medium and added to the drug-containing microtiter plates at 50 µL per well. MK-8527 was tested in triplicate for each experiment, with 12 test concentrations added at 100 µL per well.
Lymphocyte-tropic virus strains HIV-1IIIB or HIV-2ROD (NIH AIDS Research and Reference Reagent Program) were diluted into tissue culture medium such that the amount of virus added to each well in a volume of […] corresponded to the amount determined to yield 85% to 95% cell killing in the untreated virus control wells at 6–7 days. Virus was added immediately after cells were added to the 96-well microtiter plates.
The IC50 for MK-8527 antiviral activity was determined using 4-parameter curve fit calculations.

HIV-1 subtypes = conditions: for Fold-Change in IC50 vs CNDO control virus: listed as MK-8527
Method: Compounds were evaluated for antiviral activity against a panel of clinical isolates representing multiple HIV-1 subtypes at Monogram Biosciences (South San Francisco, CA, USA). The isolates were selected based on an absence of resistance-associated mutations in RT and each was constructed as a pooled resistance test vector designed to preserve the quasispecies present in the initial clinical isolate.

In the case of `C#C[C@]1(CO)O[C@@H](n2ccc3c(N)nc(Cl)nc32)C[C@@H]1O` [Compound 12, (2R,3S,5R)-5-(4-amino-2-chloro-7H-pyrrolo[2,3-d]pyrimidin-7-yl)-2-ethynyl-2-(hydroxymethyl)tetrahydrofuran-3-ol], the IC50 (HIV-1; Human immunodeficiency virus 1, WT HIV-1, multicycle assay) is reported as 3.4 nM, the “MT4-GFP IC50” value (HIV-1; WT HIV-1, multicycle assay) is reported as “single-digit nanomolar potency” and the IC50 (HIV-1; WT HIV-1, multicycle assay, listed as MK-8527) is reported as 3.37 ± 1 nM. The IC50 (HIV-2ROD) was 0.007 nM, the “Geometric Mean fold-change” value (HIV-1 subtypes; WT Subtype A) was 1.0 and the “Geometric Mean fold-change” value (HIV-1 subtypes; WT Subtype A1) was 0.9. The “Fold-Change in IC50 vs CNDO control virus” value (HIV-1 subtypes; WT Subtype A1 clinical isolates) was 0.96 and 0.93 and 0.73, the “Geometric Mean fold-change” value (HIV-1 subtypes; WT Subtype AE) was 0.6 and the “Geometric Mean fold-change” value (HIV-1 subtypes; WT Subtype AG) was 1.0. For the same compound, the “Geometric Mean fold-change” value (HIV-1 subtypes; WT Subtype B) was 0.9, the “Geometric Mean fold-change” value (HIV-1 subtypes; WT Subtype BF) was 0.8 and the “Geometric Mean fold-change” value (HIV-1 subtypes; WT Subtype C) was 1.0. The “Geometric Mean fold-change” value (HIV-1 subtypes; WT Subtype D) was 0.7, the “Geometric Mean fold-change” value (HIV-1 subtypes; WT Subtype F1) was 0.8 and the “Geometric Mean fold-change” value (HIV-1 subtypes; WT Subtype G) was 0.752. For the same compound, the “Geometric Mean fold-change” value (HIV-1 subtypes; WT Subtype H) was 0.55 and the “Fold-Change in IC50 vs CNDO control virus” value (HIV-1 subtypes; WT Subtype H clinical isolates) was 0.72 and 0.42.
